What was measured:
Experiment in all cases: relative viability (nuclei count vs DMSO), 5 days (fraction); higher = more cells survive
Bortezomib + OSI-027 = compound: CC(C)C[C@H](NC(=O)[C@H](Cc1ccccc1)NC(=O)c1cnccn1)B(O)O [Bortezomib] + COc1cccc2cc(-c3nc([C@H]4CC[C@H](C(=O)O)CC4)n4ncnc(N)c34)[nH]c12 [OSI-027] (partner 0.5 µM)
Procedure, shortened: (§1)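 After 5 days of treatment, lung cancer cells in 1536-well plates were fixed and stained in a single step (final 0.05% Triton X-100, 1% formaldehyde, 1 ug/ml Hoechst) and their nuclei counted on 4× images. Treatment had been applied by pin tool the day after seeding as one drug alone or as a fixed anchor-drug dose with five library-drug doses (not always all listed) in √10 steps. Relative viability is the nuclei count of treated wells divided by that of vehicle wells, and values are medians of duplicate plates.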

Obatoclax + Lapatinib = compound: COC1=CC(c2cc3ccccc3[nH]2)=N/C1=C\c1[nH]c(C)cc1C [Obatoclax] + CS(=O)(=O)CCNCc1ccc(-c2ccc3ncnc(Nc4ccc(OCc5cccc(F)c5)c(Cl)c4)c3c2)o1 [Lapatinib] (partner 2 µM)
Procedure, shortened: as §1

Obatoclax + Luminespib = compound: COC1=CC(c2cc3ccccc3[nH]2)=N/C1=C\c1[nH]c(C)cc1C [Obatoclax] + CCNC(=O)c1noc(-c2cc(C(C)C)c(O)cc2O)c1-c1ccc(CN2CCOCC2)cc1 [Luminespib] (partner 0.01 µM)
Procedure, shortened: as §1

Obatoclax + Trametinib = compound: COC1=CC(c2cc3ccccc3[nH]2)=N/C1=C\c1[nH]c(C)cc1C [Obatoclax] + CC(=O)Nc1cccc(-n2c(=O)n(C3CC3)c(=O)c3c(Nc4ccc(I)cc4F)n(C)c(=O)c(C)c32)c1 [Trametinib] (partner 0.02 µM)
Procedure, shortened: as §1

Cell Line | relative viability (Bortezomib + OSI-027; first compound 0.0002 µM) | relative viability (Bortezomib + OSI-027; first compound 0.000632 µM) | relative viability (Bortezomib + OSI-027; first compound 0.002 µM) | relative viability (Bortezomib + OSI-027; first compound 0.006325 µM) | relative viability (Bortezomib + OSI-027; first compound 0.02 µM) | relative viability (Obatoclax + Lapatinib; first compound 0.01 µM) | relative viability (Obatoclax + Lapatinib; first compound 0.03162 µM) | relative viability (Obatoclax + Lapatinib; first compound 0.1 µM) | relative viability (Obatoclax + Lapatinib; first compound 0.3162 µM) | relative viability (Obatoclax + Lapatinib; first compound 1 µM) | relative viability (Obatoclax + Luminespib; first compound 0.01 µM) | relative viability (Obatoclax + Luminespib; first compound 0.03162 µM) | relative viability (Obatoclax + Luminespib; first compound 0.1 µM) | relative viability (Obatoclax + Luminespib; first compound 0.3162 µM) | relative viability (Obatoclax + Luminespib; first compound 1 µM) | relative viability (Obatoclax + Trametinib; first compound 0.01 µM) | relative viability (Obatoclax + Trametinib; first compound 0.03162 µM) | relative viability (Obatoclax + Trametinib; first compound 0.1 µM) | relative viability (Obatoclax + Trametinib; first compound 0.3162 µM) | relative viability (Obatoclax + Trametinib; first compound 1 µM)
HCC-15 | 0.677 | 0.707 | 0.667 | 0.0893 | 0.0735 | 0.854 | 0.801 | 0.747 | 0.723 | 0.581 | 0.302 | 0.148 | 0.267 | 0.361 | 0.274 | 0.43 | 0.297 | 0.401 | 0.353 | 0.411
HCC-44 | 0.462 | 0.523 | 0.472 | 0.252 | 0.197 | 1.08 | 0.891 | 0.955 | 0.876 | 0.37 | 1.07 | 0.992 | 0.658 | 0.65 | 0.167 | 1.09 | 1.02 | 0.989 | 1.1 | 0.994
HCC-78 | 0.36 | 0.352 | 0.372 | 0.385 | 0.263 | 0.937 | 0.64 | – | 0.579 | 0.844 | – | – | – | – | – | 0.774 | 0.717 | 1.03 | 0.547 | 0.898
HCC-366 | 0.821 | 0.539 | 1.1 | 0.742 | 0.047 | 1.02 | 1.05 | 0.921 | 0.636 | 0.379 | – | – | – | – | – | 0.348 | 0.323 | 0.321 | 0.245 | 0.228
HCC-827 | 0.837 | 0.747 | 0.859 | 0.236 | 0.103 | 0.183 | 0.195 | 0.226 | 0.229 | 0.271 | 0.676 | 0.575 | 0.6 | 0.706 | 0.76 | 0.523 | 0.512 | 0.734 | 0.475 | 0.595
HOP-62 | 0.981 | 0.914 | 0.691 | 0.149 | 0.0803 | 0.963 | 0.909 | 0.976 | 1.04 | 1.05 | 0.854 | 0.815 | 0.846 | 0.88 | 0.926 | 0.406 | 0.318 | 0.389 | 0.388 | 0.408
IA-LM | – | – | – | – | – | 0.631 | 0.872 | 0.454 | 0.135 | 0.114 | – | – | – | – | – | – | – | – | – | –
LC-2-ad | 0.76 | 0.621 | 0.986 | 0.209 | 0.174 | 0.977 | 0.906 | 0.802 | 0.817 | 0.867 | 0.984 | 0.914 | 0.773 | 0.733 | 0.361 | 0.954 | 0.859 | 0.885 | 0.905 | 0.969
LCLC-97TM1 | 0.475 | 0.336 | 0.583 | 0.233 | 0.129 | 0.835 | 0.936 | 1.3 | 0.906 | 1.21 | 0.734 | 0.563 | 0.788 | 0.761 | 0.532 | 0.224 | 0.177 | 0.203 | 0.193 | 0.194
LCLC-103H | 0.482 | 0.511 | 0.492 | 0.201 | 0.14 | – | – | – | – | – | 0.948 | 0.875 | 1.02 | 0.911 | 0.969 | 0.64 | 0.702 | 0.63 | 0.678 | 0.694
NCI-H441 | 0.648 | 0.38 | 0.233 | 0.154 | 0.188 | – | – | – | – | – | 0.416 | 0.316 | 0.278 | 0.223 | 0.236 | 0.505 | 0.353 | 0.427 | 0.27 | 0.194
NCI-H522 | 0.632 | 0.556 | 0.724 | 0.439 | 0.465 | – | – | – | – | – | 1.17 | 1.1 | 1.07 | – | 1.01 | 0.683 | 0.765 | 0.805 | 0.783 | 0.867
NCI-H1299 | – | – | – | – | – | 0.911 | 0.977 | 0.932 | 0.881 | 0.308 | – | – | – | – | – | – | – | – | – | –
NCI-H1563 | 0.795 | 0.751 | 0.653 | 0.519 | 0.485 | 0.902 | 1.16 | 0.955 | 0.794 | 0.711 | 0.519 | 0.528 | 0.529 | 0.503 | 0.517 | – | – | – | – | –
NCI-H1623 | 0.434 | 0.473 | 0.468 | 0.36 | 0.295 | – | – | – | – | – | 0.561 | 0.437 | 0.662 | 0.571 | 0.547 | – | – | – | – | –
NCI-H1648 | 0.256 | 0.293 | 0.251 | 0.256 | 0.229 | – | – | – | – | – | – | – | – | – | – | 0.52 | 0.406 | 0.559 | 0.51 | 0.457
NCI-H1703 | – | – | – | – | – | 1 | 1.46 | 1.1 | 0.437 | 0.405 | – | – | – | – | – | – | – | – | – | –
NCI-H2342 | 0.656 | 0.524 | 0.616 | 0.634 | 0.587 | – | – | – | – | – | 0.592 | 0.87 | 0.777 | 0.644 | 0.716 | 0.859 | 0.849 | 0.907 | 0.788 | 0.861
SW 900 | 0.527 | 0.414 | 0.143 | 0.0928 | 0.108 | – | – | – | – | – | 0.164 | 0.153 | 0.179 | 0.131 | 0.148 | 1.06 | 0.762 | 0.931 | 0.62 | 0.547
